Test results: patent publication US20260256761A1, “COMPOSITIONS AND METHODS FOR THE IDENTIFICATION OF INHIBITORS OF AND TREATMENT FOR ECTOPIC CALCIFICATION” (UNIVERSITY OF PITTSBURGH-OF THE COMMONWEALTH SYSTEM OF …, priority 2022, published 2026)

Experiments:
[1] = test system: human aortic valve interstitial cells (AVICs); assay: Osteogenic assay: calcification of human AVICs in osteogenic media (Alizarin Red); type: cell-based; settings: for calcification of AVICs: STAT5 inhibitor 10 μM added every two days during osteogenic (OST) treatment, after 21 days of treatment (FIG. 6D)
Method: Human cell isolation. Patient-specific lines were established by using the same valves for histopathology, RNA, and cell isolation. Primary aortic valve interstitial cells (AVICs) were obtained from the patient aortic valve. Briefly, leaflets were washed with PBS containing 10 mg/ml gentamicin (GIBCO) and 250 μg/ml fungizone (GIBCO) and dissociated with 0.1% collagenase II at 37 C and 5% of CO2 for 18 hours. Then, the tissue was further dissociated by gently mixing it by pipetting with a serological pipette to ensure the release of A VICs and then passed through a […] filter to remove debris. Cells were pelleted and then resuspended in Dulbecco's Modified Eagle's Medium (DMEM) supplemented with 10% fetal bovine serum (FBS) and 1×penicillin-streptomycin (P/S). Human coronary artery smooth muscle cells (CASMC) were obtained from patient coronary. Briefly, vessels were washed with PBS containing 10 mg/ml gentamicin (GIBCO) and 250 μg/ml fungizone (GIBCO). Vessels were cut open to expose the lumen and intima and adventitia were gently scrapped. Vessels were then sectioned and dissociated with 0.1% collagenase II for 3 hrs. Cells were pelleted and then seed and expanded.
(§1) Cell Culture. AVICs lines were expanded in Dulbecco's Modified Eagle's Medium supplemented with 10% fetal bovine serum and 1×penicillin-streptomycin. Cells were used between passages 4 and 15. Growth media was changed every three days, and cells were split 1:2 when confluent. CASMC lines were expanded in smooth muscle media SMGM (CC-3181) supplemented with BULLETKIT (CC-4149). Human MSCs (PT-2501, Lonza) were expanded on Minimum Essential Medium alpha without nucleosides and supplemented with 10% fetal bovine serum and 1×penicillin-streptomycin and used between passages 4 and 10. Cells are routinely tested for mycoplasma contamination.
(§2) Osteogenic Assay. […]
(§3) Alizarin Red Staining and Quantification. […] Absorbance was at 405 nm using a 96-well plate spectrophotometer.

hCASMC = assay: Osteogenic assay: calcification of human coronary artery smooth muscle cells; type: cell-based; settings: inhibitor 10 μM, osteogenic media, 21 days (FIG. 16D, FIG. 6E)
Method: Scalebar 100 μm (middle panel). Quantification of PLA signal is shown on the right graphs. n=4. […] Diagram depicting STAT5 and TERT binding RUNX2 promoter and the positions of the predicted STAT5 binding sites (bottom panel). […] Scalebar 400 μm n=8; means±SD. Quantification of calcification is shown on the right graph. Data is represented as means±SD. P were calculated by Kruskal-Wallis H test with Dunn pairwise comparison post hoc test. Scalebar 400 um. […] When the cells reached confluence, media was replaced with osteogenic media (Minimum Essential Medium alpha with nucleosides, 10% FBS, 1×P/S, 10 mM glycerol phosphate, 50 μM ascorbic acid 2-phosphate, and 100 nM dexamethasone) for 21 days. No treatment media consisted of Minimum Essential Medium alpha with nucleosides, 10% FBS, 1×P/S. Media was replaced every four days.
Quantification of protein levels. n=4 control, n=4 CAVD; means±SD; two-way ANOVA. […] Scalebar 100 um. Quantification of PLA is shown on the right graph. n=4. […] P were calculated by Kruskal-Wallis H test with Dunn pairwise comparison post hoc test. Scalebar 400 um. […] Scalebar 50 um.
Human cell isolation. Patient-specific lines were established by using the same valves for histopathology, RNA, and cell isolation. Primary aortic valve interstitial cells (AVICs) were obtained from the patient aortic valve. […]
Alizarin Red Staining and Quantification. […]

STAT5A = target: T1, STAT5A (Homo sapiens, UniProt P42229); settings: as reported; cited from earlier work
T1 sequence (P42229 1-794): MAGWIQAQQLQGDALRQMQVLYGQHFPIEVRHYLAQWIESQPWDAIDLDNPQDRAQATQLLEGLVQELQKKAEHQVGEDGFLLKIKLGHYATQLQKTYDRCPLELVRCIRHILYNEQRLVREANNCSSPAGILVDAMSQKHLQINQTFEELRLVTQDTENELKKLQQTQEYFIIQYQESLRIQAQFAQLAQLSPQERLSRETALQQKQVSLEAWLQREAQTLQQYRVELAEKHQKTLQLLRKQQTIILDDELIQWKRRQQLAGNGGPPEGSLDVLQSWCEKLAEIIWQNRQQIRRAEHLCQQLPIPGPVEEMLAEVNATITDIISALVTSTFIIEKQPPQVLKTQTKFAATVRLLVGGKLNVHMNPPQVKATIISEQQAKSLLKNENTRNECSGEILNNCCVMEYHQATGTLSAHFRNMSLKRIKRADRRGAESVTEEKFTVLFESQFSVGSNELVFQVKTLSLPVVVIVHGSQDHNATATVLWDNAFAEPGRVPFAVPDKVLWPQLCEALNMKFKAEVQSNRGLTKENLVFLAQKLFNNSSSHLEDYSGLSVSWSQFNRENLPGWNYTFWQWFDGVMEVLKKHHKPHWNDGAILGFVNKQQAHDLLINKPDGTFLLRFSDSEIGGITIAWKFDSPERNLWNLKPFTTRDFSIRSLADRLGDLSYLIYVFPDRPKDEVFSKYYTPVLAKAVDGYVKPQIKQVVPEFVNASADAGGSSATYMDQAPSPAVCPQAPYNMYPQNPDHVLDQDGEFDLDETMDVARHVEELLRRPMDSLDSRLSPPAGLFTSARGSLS

hMSCs = assay: Osteogenic assay: calcification of human mesenchymal stem cells; type: cell-based; settings: inhibitor 10 μM, osteogenic media, 21 days (FIG. 17)
Method: When cells reached confluence, media was replaced with osteogenic media (Minimum Essential Medium alpha with nucleosides, 10% FBS 1×P/S, 10 mM glycerol phosphate, 50 uM ascorbic acid 2-phosphate, and 100 nM dexamethasone) for 21 days. No treatment media consisted of Minimum Essential Medium alpha with nucleosides, 10% FBS, 1×P/S. Media was replaced every four days. […] P were calculated by Kruskal-Wallis H test with Dunn pairwise comparison post hoc test. Scalebar 400 μm.
as §1, §2, §3

Row | SMILES | ability of AVICs to calcify ([1]; BIBR1532 at 1, 10, or 100 nM added every two days during OST treatment, 28 days (FIG. 13C)) | calcification in hCASMC (hCASMC) | calcification of AVICs [1] | specific inhibition of STAT5A isoform (STAT5A) | calcification in hMSCs (hMSCs)
1 | C/C(=C\C(=O)Nc1ccccc1C(=O)O)c1ccc2ccccc2c1 [BIBR1532] | did not alter the ability of AVICs to calcify | – | – | – | –
2 | COc1cc(-c2cc(OP(=O)(O)O)cc(-c3cc(OC)c(OC)c(OC)c3)c2)cc(OC)c1OC [StafiA-1] | – | significantly reduced the calcification | significantly inhibited calcification | specifically inhibit | significantly reduced the calcification
3 | O=C(COc1ccc2cc(C(=O)Nc3ccccc3)ccc2c1)NCc1ccc(OP(=O)(O)O)c(OP(=O)(O)O)c1 [StafiB-1] | – | did not | this inhibition was of a greater extent than the inhibition observed when AVICs were treated with StafiB-1 | – | –
